Laboratory results from patent US20150374649A1, “Treatment of Severe Hypertriglyceridemia” (CymaBay Therapeutics, Inc, priority 2014, published 2015).

Legend:
PPARα = target: T1, PPARα (Homo sapiens, UniProt Q07869); assay: Specificity for PPARδ compared with PPARα; type: biochemical; details: PPARδ versus PPARα
T1 sequence (Q07869 1-468): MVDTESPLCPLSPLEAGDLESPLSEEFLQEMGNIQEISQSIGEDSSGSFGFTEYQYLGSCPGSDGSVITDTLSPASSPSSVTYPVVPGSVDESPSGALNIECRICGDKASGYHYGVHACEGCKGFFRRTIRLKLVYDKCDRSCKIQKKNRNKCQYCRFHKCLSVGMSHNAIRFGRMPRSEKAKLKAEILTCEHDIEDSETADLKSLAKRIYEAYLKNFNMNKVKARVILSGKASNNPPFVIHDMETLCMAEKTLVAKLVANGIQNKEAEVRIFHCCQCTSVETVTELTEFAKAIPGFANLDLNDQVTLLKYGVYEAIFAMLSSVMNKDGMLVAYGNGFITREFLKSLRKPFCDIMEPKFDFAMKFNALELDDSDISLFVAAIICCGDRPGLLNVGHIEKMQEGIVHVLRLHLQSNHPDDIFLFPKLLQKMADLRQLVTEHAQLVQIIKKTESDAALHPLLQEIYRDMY

[1] = tested on: adult subjects with severe hypertriglyceridemia; assay: 12-week open label dose-escalation study in severe hypertriglyceridemia; type: in vivo, human
Description: The study is a 12-week interventional, open label (single blind), dose-escalation study using adult subjects (for example 30, preferably with at least one-fourth the number having Type I hyperlipoproteinemia and at least one-fourth the number having Type V hyperlipoproteinemia) with severe hypertriglyceridemia (fasting TG levels of at least 1000 mg/dL), on stable therapy (fibrates, niacin, O3FA) or refractory to such therapy. Exclusion criteria include stage 3 or 4 heart failure, uncontrolled diabetes mellitus in the month before screening, use of corticosteroids in the month before screening, estrogen treatments (contraceptive or hormone replacement) unless on a stable dose in the two months before screening, a history of pancreatic disease during the six months before screening, and current apheresis treatments. Subjects are assessed for fasting TGs and other lipids at baseline.

[2] = tested on: dyslipidemic overweight patients (mixed dyslipidemia); details: cited from earlier work
[3] = tested on: hypertriglyceridemia patients; details: cited from earlier work

specificity compared with PPARα (PPARα)	SMILES	fasting TGs versus baseline ([1]; 50, 100, 200 mg/day orally, four weeks each, reduction increasing with dose)	percentage of subjects at risk of acute pancreatitis and associated adverse events ([1]; subjects with SHTG)	reduction of TGs over the total population treated ([2]; 50 mg/day and 100 mg/day)	reduction of TGs ([2]; compared to placebo, 50 or 100 mg once daily alone and in combination with ATV 20 mg, 8 weeks, P<0.05)	insulin sensitivity ([2]; homeostatic model assessment-insulin resistance, fasting plasma glucose, insulin lowered)	GGT and ALP ([2]; in vivo)	effect on small dense LDL particles ([2]; in vivo)	liver enzyme levels ([2]; in vivo)	percentage reduction in TGs, tertile with lowest starting TG levels ([2]; starting TG 125-155 mg/dL)	percentage reduction in TGs, tertile with highest starting TG levels ([2]; starting TG 279-324 mg/dL)	decrease of TG levels ([3]; high-dose niacin (at least 1500 mg/day))	raise of HDL-C levels ([3]; human, in vivo)
> 600 fold	CCO[C@H](COc1ccc(C(F)(F)F)cc1)CSc1ccc(OCC(=O)O)c(C)c1 [MBX-8025, (R)-2-(4-((2-ethoxy-3-(4-(trifluoromethyl)phenoxy)propyl)thio)-2-methylphenoxy)acetic acid]	reduction in fasting TGs from baseline	significantly reduce	32%	26-30%	increases insulin sensitivity	lowers GGT and ALP	selectively depletes small dense LDL particles	reduced liver enzyme levels	near zero	over 40%	–	–
–	O=C(O)c1cccnc1 [niacin, pyridine-3-carboxylic acid]	–	–	–	–	–	–	–	–	–	–	at least 40%	at least 40%
